# Where two headings read alike, the source gives them in different places.
# Key:
# hepatic genes (liver) = test system: hepatic genes (liver)
# Procedure: While the molecular target for PPARγ is not in the liver, it represents the effects of changes in metabolism of the whole animal, which impact liver lipoprotein production and clearance.
# Male Sprague-Dawley (Crl:CD® (SD)(IGS)BR) rats (Charles River Laboratories, Portage, Mich.), weight matched, 7 to 8 weeks of age, were housed individually in hanging, stainless steel, wire-bottom cages in a temperature (66-77° F.), light (12-hour dark/light cycle) and humidity (30-70%) controlled room. Water and rodent diet were available ad libitum throughout the 5 day acclimatization period and during the 5 day treatment period. Housing and treatment of the animals were in accordance with regulations outlined in the USDA Animal Welfare Act (9 CFR Parts 1, 2 and 3).
# Rats (three per group) were dosed daily at either a low or high dose. […] Animals were necropsied on days 0.25, 1, 3, and 5. Up to 13 tissues (e.g., liver, kidney, heart, bone marrow, blood, spleen, brain, intestine, glandular and nonglandular stomach, lung, muscle, and gonads) were collected for histopathological evaluation and microarray expression profiling on the Affymetrix Rat Whole Genome RG230 v2 platform. In addition, a clinical pathology panel consisting of 37 clinical chemistry and hematology parameters was generated from blood samples collected on days 3 and 5.
# Gene expression profiling, data processing and quality control were performed using protocols recommended by. Briefly, liver samples from 3 rats were chosen at random from each treatment and control group for each timepoint for expression profile analysis on the Affymetrix Rat Whole Genome RG230 v2 microarray (Affymetrix, Santa Clara, Calif.). Log transformed signal data for all probes were array-wise normalized using the Affymetrix MASS algorithm. Expression log ratios of base 10 (log(10) ratios) were computed as the difference between the logs of the averaged normalized experimental signals and the averaged normalized time-matched vehicle control signals for each gene.
# [1] = clinical trials and post-marketing; cited from earlier work
structure (smiles),measurement,setting,value
CN(CCOc1ccc(CC2SC(=O)NC2=O)cc1)c1ccccn1 (stereo not shown) [rosiglitazone],"Average Log (10) Ratio: L-3-hydroxyacyl-Coenzyme A dehydrogenase, short chain","hepatic genes (liver); rat liver, probe AA891362, Rn.92789, oral gavage, experiments of Table 3",−0.205
same,Average Log (10) Ratio: acetyl-coenzyme A acetyltransferase 1,"hepatic genes (liver); rat liver, probe AA899304, Rn.4054, oral gavage, experiments of Table 3",0.546
same,Average Log (10) Ratio: transferrin,"hepatic genes (liver); rat liver, probe AA945548, Rn.91296, oral gavage, experiments of Table 3",−0.376
same,Average Log (10) Ratio: sterol regulatory element binding factor 1,"hepatic genes (liver); rat liver, probe AF286470, Rn.801, oral gavage, experiments of Table 3",−0.464
same,"Average Log (10) Ratio: CCAAT/enhancer binding protein (C/EBP), delta","hepatic genes (liver); rat liver, probe AI176576, Rn.6975, oral gavage, experiments of Table 3",−0.407
same,Average Log (10) Ratio: fatty acid synthase,"hepatic genes (liver); rat liver, probe AI179334, Rn.9486, oral gavage, experiments of Table 3",−0.182
same,Average Log (10) Ratio: peroxisome proliferator activated receptor alpha,"hepatic genes (liver); rat liver, probe AI385341, Rn.9753, oral gavage, experiments of Table 3",0.461
same,Average Log (10) Ratio: perilipin,"hepatic genes (liver); rat liver, probe AI406700, Rn.9737, oral gavage, experiments of Table 3",0.137
same,Average Log (10) Ratio: monoglyceride lipase,"hepatic genes (liver); rat liver, probe AI713204, Rn.40396, oral gavage, experiments of Table 3",0.439
same,"Average Log (10) Ratio: phosphatidylinositol 3-kinase, C2 domain containing, gamma polypeptide","hepatic genes (liver); rat liver, probe AW526669, Rn.169550, oral gavage, experiments of Table 3",0.692
same,Average Log (10) Ratio: monoglyceride lipase,"hepatic genes (liver); rat liver, probe AY081195, Rn.40396, oral gavage, experiments of Table 3",0.621
same,Average Log (10) Ratio: mitogen-activated protein kinase 8,"hepatic genes (liver); rat liver, probe BE105603, Rn.4090, oral gavage, experiments of Table 3",−0.104
same,"Average Log (10) Ratio: ELOVL family member 6, elongation of long chain fatty acids (yeast)","hepatic genes (liver); rat liver, probe BF396857, Rn.46942, oral gavage, experiments of Table 3",0.495
same,Average Log (10) Ratio: sterol regulatory element binding factor 1,"hepatic genes (liver); rat liver, probe BF398848, Rn.801, oral gavage, experiments of Table 3",−0.461
same,Average Log (10) Ratio: RIKEN cDNA 1500016L11 (DBSS),"hepatic genes (liver); rat liver, probe BF407188, Rn.15135, oral gavage, experiments of Table 3",−0.448
same,Average Log (10) Ratio: monoglyceride lipase,"hepatic genes (liver); rat liver, probe BG372713, Rn.40396, oral gavage, experiments of Table 3",0.551
same,Average Log (10) Ratio: Pyruvate carboxylase,"hepatic genes (liver); rat liver, probe BG376902, Rn.11094, oral gavage, experiments of Table 3",−0.172
same,Average Log (10) Ratio: acetyl CoA transferase-like (DBSS),"hepatic genes (liver); rat liver, probe BG377636, Rn.98393, oral gavage, experiments of Table 3",0.519
same,Average Log (10) Ratio: phospholipid transfer protein (DBSS),"hepatic genes (liver); rat liver, probe BI278687, Rn.117434, oral gavage, experiments of Table 3",−0.378
same,"Average Log (10) Ratio: guanine nucleotide binding protein, alpha stimulating, olfactory type","hepatic genes (liver); rat liver, probe BI281656, Rn.39132, oral gavage, experiments of Table 3",0.107
same,Average Log (10) Ratio: acetyl-Coenzyme A acyltransferase 2 (mitochondrial 3-oxoacyl-Coenzyme A thiolase),"hepatic genes (liver); rat liver, probe BI282488, Rn.3786, oral gavage, experiments of Table 3",0.679
same,"Average Log (10) Ratio: glycerol-3-phosphate acyltransferase, mitochondrial","hepatic genes (liver); rat liver, probe BI288209, Rn.44456, oral gavage, experiments of Table 3",−0.183
same,"Average Log (10) Ratio: elongation of very long chain fatty acids (FEN1/Elo2, SUR4/Elo3, yeast)-like 3 (DBSS)","hepatic genes (liver); rat liver, probe BI292438, Rn.79322, oral gavage, experiments of Table 3",−0.042
same,Average Log (10) Ratio: NCI_CGAP_Emb2 cDNA clone IMAGE: 4176354,"hepatic genes (liver); rat liver, probe BI850137, Rn.83595, oral gavage, experiments of Table 3",−0.414
same,"Average Log (10) Ratio: pyruvate dehydrogenase kinase, isoenzyme 3 (mapped)","hepatic genes (liver); rat liver, probe BM389330, Rn.18101, oral gavage, experiments of Table 3",−0.646
same,Average Log (10) Ratio: 3-hydroxy-3-methylglutaryl-Coenzyme A reductase,"hepatic genes (liver); rat liver, probe BM390399, Rn.9437, oral gavage, experiments of Table 3",0.392
same,"Average Log (10) Ratio: sulfotransferase family 2A, dehydroepiandrosterone (DHEA)-preferring, member 1","hepatic genes (liver); rat liver, probe D14989, Rn.91378, oral gavage, experiments of Table 3",0.570
same,Average Log (10) Ratio: apolipoprotein E,"hepatic genes (liver); rat liver, probe J02582, Rn.32351, oral gavage, experiments of Table 3",−0.324
same,Average Log (10) Ratio: stearoyl-Coenzyme A desaturase 1,"hepatic genes (liver); rat liver, probe J02585, Rn.1023, oral gavage, experiments of Table 3",−0.668
same,Average Log (10) Ratio: apolipoprotein B,"hepatic genes (liver); rat liver, probe M14952, Rn.33815, oral gavage, experiments of Table 3",−0.255
same,Average Log (10) Ratio: NCI_CGAP_Emb2 cDNA clone IMAGE: 4176354,"hepatic genes (liver); rat liver, probe M15114, Rn.83595, oral gavage, experiments of Table 3",0.409
same,Average Log (10) Ratio: malic enzyme 1,"hepatic genes (liver); rat liver, probe M30596, Rn.161920, oral gavage, experiments of Table 3",0.554
same,Average Log (10) Ratio: glucokinase,"hepatic genes (liver); rat liver, probe NM_012565, Rn.10447, oral gavage, experiments of Table 3",−1.066
same,"Average Log (10) Ratio: serine (or cysteine) peptidase inhibitor, clade E, member 1","hepatic genes (liver); rat liver, probe NM_012620, Rn.29367, oral gavage, experiments of Table 3",0.819
same,"Average Log (10) Ratio: adrenergic receptor, beta 1","hepatic genes (liver); rat liver, probe NM_012701, Rn.87064, oral gavage, experiments of Table 3",−0.177
same,Average Log (10) Ratio: hexokinase 2,"hepatic genes (liver); rat liver, probe NM_012735, Rn.91375, oral gavage, experiments of Table 3",−0.330
same,"Average Log (10) Ratio: guanylate cyclase 1, soluble, beta 3","hepatic genes (liver); rat liver, probe NM_012769, Rn.87228, oral gavage, experiments of Table 3",−0.348
same,"Average Log (10) Ratio: guanylate cyclase 1, soluble, beta 2","hepatic genes (liver); rat liver, probe NM_012770, Rn.10933, oral gavage, experiments of Table 3",−0.465
same,Average Log (10) Ratio: mitogen activated protein kinase 10,"hepatic genes (liver); rat liver, probe NM_012806, Rn.9911, oral gavage, experiments of Table 3",0.458
same,Average Log (10) Ratio: carnitine palmitoyltransferase 2,"hepatic genes (liver); rat liver, probe NM_012930, Rn.11389, oral gavage, experiments of Table 3",0.494
same,Average Log (10) Ratio: 3-hydroxy-3-methylglutaryl-Coenzyme A reductase,"hepatic genes (liver); rat liver, probe NM_013134, Rn.9437, oral gavage, experiments of Table 3",0.389
same,"Average Log (10) Ratio: transforming growth factor, beta 3","hepatic genes (liver); rat liver, probe NM_013174, Rn.7018, oral gavage, experiments of Table 3",−0.380
same,"Average Log (10) Ratio: carnitine palmitoyltransferase 1b, muscle","hepatic genes (liver); rat liver, probe NM_013200, Rn.6028, oral gavage, experiments of Table 3",0.984
same,"Average Log (10) Ratio: solute carrier family 10, member 2","hepatic genes (liver); rat liver, probe NM_017222, Rn.85891, oral gavage, experiments of Table 3",−0.544
same,Average Log (10) Ratio: mitogen-activated protein kinase 9,"hepatic genes (liver); rat liver, probe NM_017322, Rn.9910, oral gavage, experiments of Table 3",−0.348
same,"Average Log (10) Ratio: acyl-Coenzyme A oxidase 1, palmitoyl","hepatic genes (liver); rat liver, probe NM_017340, Rn.31796, oral gavage, experiments of Table 3",0.336
same,"Average Log (10) Ratio: transforming growth factor, beta 1","hepatic genes (liver); rat liver, probe NM_021578, Rn.40136, oral gavage, experiments of Table 3",−0.592
same,"Average Log (10) Ratio: protein kinase, AMP-activated, beta 2 non-catalytic subunit","hepatic genes (liver); rat liver, probe NM_022627, Rn.15423, oral gavage, experiments of Table 3",−0.211
same,"Average Log (10) Ratio: transforming growth factor, beta 2","hepatic genes (liver); rat liver, probe NM_031131, Rn.24539, oral gavage, experiments of Table 3",0.020
same,"Average Log (10) Ratio: carnitine palmitoyltransferase 1a, liver","hepatic genes (liver); rat liver, probe NM_031559, Rn.2856, oral gavage, experiments of Table 3",0.264
same,"Average Log (10) Ratio: protein kinase, AMP-activated, beta 1 non-catalytic subunit","hepatic genes (liver); rat liver, probe NM_031976, Rn.3619, oral gavage, experiments of Table 3",−0.409
same,"Average Log (10) Ratio: ATP-binding cassette, sub-family D (ALD), member 1 (DBSS)","hepatic genes (liver); rat liver, probe NM_033352, Rn.177278, oral gavage, experiments of Table 3",0.450
same,"Average Log (10) Ratio: insulin-like growth factor binding protein, acid labile subunit","hepatic genes (liver); rat liver, probe NM_053329, Rn.164865, oral gavage, experiments of Table 3",−0.658
same,"Average Log (10) Ratio: pyruvate dehydrogenase kinase, isoenzyme 4","hepatic genes (liver); rat liver, probe NM_053551, Rn.30070, oral gavage, experiments of Table 3",0.442
same,"Average Log (10) Ratio: phosphatidylinositol 3-kinase, C2 domain containing, gamma polypeptide","hepatic genes (liver); rat liver, probe NM_053923, Rn.169550, oral gavage, experiments of Table 3",−0.485
same,Average Log (10) Ratio: pyruvate dehydrogenase E1 alpha 2,"hepatic genes (liver); rat liver, probe NM_053994, Rn.11126, oral gavage, experiments of Table 3",−0.338
same,"Average Log (10) Ratio: nuclear receptor subfamily 0, group B, member 2","hepatic genes (liver); rat liver, probe NM_057133, Rn.10712, oral gavage, experiments of Table 3",0.367
same,"Average Log (10) Ratio: hydroxyacyl-Coenzyme A dehydrogenase/3-ketoacyl-Coenzyme A thiolase/enoyl-Coenzyme A hydratase (trifunctional protein), beta subunit","hepatic genes (liver); rat liver, probe NM_133618, Rn.11253, oral gavage, experiments of Table 3",0.409
same,"Average Log (10) Ratio: ELOVL family member 5, elongation of long chain fatty acids (yeast)","hepatic genes (liver); rat liver, probe NM_134382, Rn.4243, oral gavage, experiments of Table 3",−0.486
same,"Average Log (10) Ratio: Glycerol-3-phosphate dehydrate dehydrogenase (mtGPDH) mRNA, 3′UTR","hepatic genes (liver); rat liver, probe U08027, Rn.89705, oral gavage, experiments of Table 3",0.635
same,"Average Log (10) Ratio: glycerol-3-phosphate acyltransferase, mitochondrial","hepatic genes (liver); rat liver, probe U36771, Rn.44456, oral gavage, experiments of Table 3",−0.156
same,"Average Log (10) Ratio: Cytochrome P450, family 2, subfamily b, polypeptide 2","hepatic genes (liver); rat, in vivo, po",0.629
same,"Average Log (10) Ratio: cytochrome P450, family 2, subfamily b, polypeptide 13","hepatic genes (liver); rat, in vivo, po",0.499
same,"Average Log (10) Ratio: cytochrome P450, family 3, subfamily a, polypeptide 13","hepatic genes (liver); rat, in vivo, po",0.550
same,"Average Log (10) Ratio: cytochrome P450, family 7, subfamily a, polypeptide 1","hepatic genes (liver); rat, in vivo, po",−0.168
same,"Average Log (10) Ratio: cytochrome P450, family 8, subfamily b, polypeptide 1","hepatic genes (liver); rat, in vivo, po",0.394
same,risk of cardiovascular events,[1],paradoxically increased risk of cardiovascular events

# — patent US20100120050A1, “Biomarkers For Assessing Altherosclerotic Potential” (ENTELOS, INC., priority 2008, published 2010)
